Like-named read-outs stand apart in the source and are kept apart here.
Key:
[1] = target: T1, human TLR7 (Homo sapiens, UniProt Q9NYK1); assay: HEK293-hTLR7 NF-kB luciferase reporter (C23) assay; details: read-out: mean fold induction of luciferase activity compared to the no drug control
T1 sequence (Q9NYK1 27-1049): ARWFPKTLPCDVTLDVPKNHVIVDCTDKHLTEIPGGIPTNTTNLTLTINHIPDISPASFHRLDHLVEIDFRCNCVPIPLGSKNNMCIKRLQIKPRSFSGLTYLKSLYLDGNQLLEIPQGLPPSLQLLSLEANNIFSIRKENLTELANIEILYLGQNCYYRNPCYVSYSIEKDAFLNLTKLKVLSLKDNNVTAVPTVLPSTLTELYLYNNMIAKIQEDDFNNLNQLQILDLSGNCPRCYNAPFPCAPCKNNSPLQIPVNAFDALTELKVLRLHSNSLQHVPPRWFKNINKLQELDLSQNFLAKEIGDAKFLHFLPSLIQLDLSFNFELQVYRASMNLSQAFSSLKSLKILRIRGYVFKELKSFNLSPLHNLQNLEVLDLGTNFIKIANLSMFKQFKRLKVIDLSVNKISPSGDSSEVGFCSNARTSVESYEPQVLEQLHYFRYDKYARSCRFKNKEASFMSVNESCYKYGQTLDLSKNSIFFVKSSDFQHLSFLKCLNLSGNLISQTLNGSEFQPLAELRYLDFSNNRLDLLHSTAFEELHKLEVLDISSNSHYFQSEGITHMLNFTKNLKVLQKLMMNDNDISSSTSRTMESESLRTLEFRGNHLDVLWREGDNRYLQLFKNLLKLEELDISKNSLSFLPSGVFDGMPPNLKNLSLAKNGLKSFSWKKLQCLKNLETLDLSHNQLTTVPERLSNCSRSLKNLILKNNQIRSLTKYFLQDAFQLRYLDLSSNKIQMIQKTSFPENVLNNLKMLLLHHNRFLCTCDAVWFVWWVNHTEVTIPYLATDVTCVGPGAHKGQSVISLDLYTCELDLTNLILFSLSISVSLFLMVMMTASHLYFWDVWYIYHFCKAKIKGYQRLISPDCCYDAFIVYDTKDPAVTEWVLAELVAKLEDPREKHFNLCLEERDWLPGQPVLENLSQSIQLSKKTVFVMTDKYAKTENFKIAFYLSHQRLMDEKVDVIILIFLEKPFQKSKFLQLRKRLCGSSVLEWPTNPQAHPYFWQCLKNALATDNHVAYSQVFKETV
Method: A stable HEK293-hTLR7 cell line was obtained from Invivogen (San Diego, Calif.), transfected with pNiFty2-Luc, an NF-kB inducible luciferase reporter plasmid (Invivogen) and (dual) stable transfectants selected. The resultant dual (hTLR7/pNiFty2-Luc) cell lines were functionally tested by response to loxoribine and isatoribine as measured by fold luciferase induction relative to a no drug control. […] See, e.g., Hemmi H. et al., Nat.
For a typical C23 assay, cells are seeded at 6×10^4 cells/well in 96 well plates and 4-24 hours later are treated with various concentrations of compound. After 2-48 hours exposure the cell monolayers are lyzed with passive lysis buffer (Promega) and the firefly luciferase assay carried out using the luciferase assay reagent (Promega) as specified by the manufacturer. Relative luciferase activities are expressed as folds of induction compared to the no drug control. A two-fold induction over background is considered a bona fide TLR7 agonist, dependent on this being a statistically significant increase.
In Table 1, isatoribine, was added to C23 cells for forty-eight hours, and the cells were then harvested and assayed for luciferase activity. Each time-point was assayed in triplicate.
Each time-point was assayed in triplicate.

[2] = cited from earlier work
[3] = Toxicology studies, GI tolerance in beagle dogs; format: in vivo, beagle dog; details: dog, in vivo, iv
From the text: We compared in the dog the oral toxicology of 21 and 24, and the intravenous toxicology of 21. We observed that the oral toxicology of 24 was much more like intravenous 21 than it was like oral 21.

[4] = test system: HCV; assay: HCV viral load reduction in patients, intravenous isatoribine; format: in vivo, human; details: 800 mg QD×7 days IV infusion
Method: All doses were administered by constant rate infusion over a 60-minute period, except the 800 mg dose was administered over an 80-minute period. The flow rate for each dose was as follows: 3.33 mL/min for the 200 mg dose; 6.67 mL/min for the 400 mg dose; 8.33 mL/min for the 500 mg dose; or 10.0 mL/min for the 600 mg and 800 mg dose. Four to twelve patients were enrolled in each of the dose groups (200 mg, 400 mg, 600 mg and 800 mg per dose) and received once daily intravenous infusions for 7 days. Prior to dosing, a blood sample was drawn from each patient for assessment of the genotype of the HCV virus. […] The viral load was measured by the branched DNA method ([…]3.0 bDNA assay, Bayer Diagnostics). For plasma HCV RNA, the maximum change from the pre-treatment baseline was estimated using log-transformed values.

Nc1nc2c(sc(=O)n2[C@@H]2O[C@H](CO)[C@@H](O)[C@H]2O)c(=O)[nH]1 [Compound 21, 7-thia-8-oxoguanosine]
fold induction at 50 µM [1]: 3.1
fold induction at 100 µM [1]: 3.4
fold induction at 250 µM [1]: 6.2
fold induction at 500 µM [1]: 10.9
Emesis or loose stool ([2]; dog, in vivo, po, 2.5 mg/kg): Neg.
GI lesions or irritation ([2]; dog, in vivo, po, 2.5 mg/kg): Neg.
Emesis or loose stool ([2]; dog, in vivo, po, 5 mg/kg): +
GI lesions or irritation ([2]; dog, in vivo, po, 5 mg/kg): Neg.
Emesis or loose stool ([2]; dog, in vivo, po, 10 mg/kg): ++
GI lesions or irritation ([2]; dog, in vivo, po, 10 mg/kg): ++
multiple, scattered red lesions on the intestinal mucosa (gross histopathologic evaluation of the GI tract) ([2]; dog, in vivo, po, 10 mg/kg): four of eight dogs
NOAEL ([2]; dogs, orally administered, established by the GI effects): 5 mg/kg
Emesis or loose stool ([3]; 12.5 mg/kg): Neg.
GI lesions or irritation ([3]; 12.5 mg/kg): Neg.
Emesis or loose stool ([3]; 25 mg/kg): Neg.
GI lesions or irritation ([3]; 25 mg/kg): Neg.
Emesis or loose stool ([3]; 50 mg/kg): +
GI lesions or irritation ([3]; 50 mg/kg): Neg.
Emesis or loose stool ([3]; 100 mg/kg): ++
GI lesions or irritation ([3]; 100 mg/kg): Neg.
patients with plasma viral load decrease of more than 0.5 log 10 units [4]: Eight of 12
mean change in plasma viral load (HCV RNA) from baseline ([4]; 12 patients): −0.76 log 10 units
range of change in plasma viral load (HCV RNA) from baseline ([4]; 12 patients): −2.85 to +0.21 log 10 units

From patent publication US7858637B2, “Administration of TLR7 ligands and prodrugs thereof for treatment of infection by hepatitis C virus” (priority 2003, dated 2010)
